Results on one compound are retold here after paper PMC6108528, “Enhanced uptake of potassium or glycine betaine or export of cyclic-di-AMP restores osmoresistance in a high cyclic-di-AMP Lactococcus lactis mutant” (PLoS Genetics, 2018).

Each structure is given as a SMILES string.

The assay has as its target T1, full length BusR (Lactococcus cremoris, UniProt A2RK30).
T1 construct: full length, His-6 tag fusion in pRSETA, codon optimised, E. coli BL21 whole cell lysate
T1 sequence (A2RK30 1-206): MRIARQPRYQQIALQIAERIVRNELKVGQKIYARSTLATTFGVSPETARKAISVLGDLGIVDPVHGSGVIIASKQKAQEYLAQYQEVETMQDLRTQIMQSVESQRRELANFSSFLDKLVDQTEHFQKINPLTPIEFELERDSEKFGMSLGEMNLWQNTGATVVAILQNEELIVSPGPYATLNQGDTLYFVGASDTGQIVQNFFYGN
The assay can be described thus: DRaCALA with […]-c-di-AMP, E. coli whole cell lysate. Type of assay: biochemical. Particulars: labelled compound; room temperature, 10 min.

For the compound `Nc1ncnc2c1ncn2[C@@H]1O[C@@H]2COP(=O)(O)O[C@H]3[C@@H](O)[C@H](n4cnc5c(N)ncnc54)O[C@@H]3COP(=O)(O)O[C@H]2[C@H]1O` [c-di-AMP], the “DRaCALA with 32P-c-di-AMP, E. coli whole cell lysate” value is “Both full length BusR and the BusR TrkA_C domain bound c-di-AMP”.
